Data on eight substances can be found in patent US8304238B2, “Cell culture medium and immobilized preparation of cell adhesion protein or peptide” (Nat'l Institute for Environmental Studies, priority 2003, dated 2012).

Where no end group is shown, it is not given here.

Common to all, as to format: cell-based
The test system of assay [1] is alveolar type II epithelial cells (T2 cells). The assay is described as follows: Adhesion of T2 cells to immobilized cell adhesion peptide substrates and inhibition by the same free peptide. As to conditions: for Inhibition degree of cell adhesion, Free peptide: T2 cells on immobilized peptide, same free peptide coexistent at 0.25 mg/ml; for Competitive inhibition of cell adhesion by the same free cell adhesion peptide: immobilized by MMAC or MAST, free peptide 0.25 mg/ml. How it is done: All treatments are assumed to be aseptic treatments. First, in the case of cell adhesion proteins, 10 μg/ml of a hydrophobic binding-adsorptive polymer, such as MMAC and MAST, and in the case of peptides, 50 μg/ml of MMAC and MAST is dissolved in ethanol, the solution is filtered and poured by 50 μl each into a 96-well with no surface treatment for cell culture, leave it stand still for a while, and then MMAC etc., are removed and air-drying is conducted. Next, 10-20 μg/ml of cell adhesion protein or 0.25 mg/ml of peptide is dissolved in 0.1 M triethanolamine buffer, a solution of pH 8.8, and the mixture was poured by 50 μl each into a 96-well previously coated with MMAC etc. The solution is reacted overnight while humidifying in an incubator heated at 37° C. After the reaction finishes, the reaction liquid is absorbed, the remaining reaction solution is rinsed out with the medium, and the immobilized preparation of cell adhesion proteins or peptides is prepared. The preparation, as described in the following Examples, can be used for cell cultures as cell adhesion protein or peptide substrates.
T2 cells suspended in the serum-free DMEM medium at the concentration of 6×10^4 cells/100 μl were seeded in the well prepared according to the manner in Example 6, wherein cell adhesion peptides were immobilized, and cultured in a CO2 incubator at 37° C. for 24 hours. Then, in accordance with the manner in Example 7, the cells were fixed with methanol, stained, and the absorbance was measured. Just before seeding the cells, the free peptides, the same kind as the cell adhesion peptides used for immobilization, were also added to the cell suspension, and the absorbance was measured after the culture in the same manner as described above. As to the case wherein FN was applied as a standard material, the measurement was conducted as well.
FIGS. 4 and 5 show the results obtained with the use of wells prepared by using laminin α-chain G-peptides and FIB-1 peptide as cell adhesion peptides, and as a hydrophobic binding-adsorptive polymer, MMAC was used in FIG. 4, and MAST was used in FIG. 5.

For assay [2] the test system is unchanged. The assay is described as follows: Inhibition of T2 cell adhesion to immobilized cell adhesion peptide substrates by heparin treatment. As to conditions: 24-hour culture; for Inhibition of cell adhesion to immobilized peptide by heparin treatment: 100 μg/ml heparin 2 hours. How it is done:
100 μg/ml of heparin solution was poured into a well prepared according to the method in Example 6, wherein the cell adhesion peptides were immobilized, and the incubation was conducted for 2 hours. The heparin solution was removed after heparin bound to the immobilized cell adhesion peptides, and T2 cell suspension was seeded on the well.
It is theoretically shown that after the cell adhesion peptides first bind to heparin and are covered with heparin, the cell adhesion receptors having heparin-like sugar chain (heparan sulfate) present on the cell surface, in other words, syndecan, a protein that belongs to heparan sulfate proteoglycan, cannot bind to the cell adhesion peptides by using the sugar chain part of the heparan sulfate, thereby the cell adhesion is inhibited.

The test system is the same in assay [3]. The experiment in a line: Binding strength (affinity) of immobilized LN peptides to T2 cells relative to immobilized FIB-1 (mixed immobilization, free FIB-1 competition). Details: key to Binding strength to T2 cells, Comprehensive evaluation: AA: extremely strongly binding/adhering; A: strongly binding/adhering; B: intermediately binding/adhering (as the same degree as FIB-1 peptide); C: more weakly binding/adhering than FIB-1 peptide. As to conditions: for Binding strength to T2 cells, Comprehensive evaluation: classification relative to FIB-1 peptide; for Binding strength to T2 cells, Ratio to FIB-1: inverse of mixing ratio at transitional midpoint, MMAC-coated well. As to the method: Therefore, the amount of FIB-1 peptide was set at 0.25 mg/ml, and AG73 peptide was mixed therewith, while changing its concentration ratio, from 1/1.250 of FIB-1 in an amount which is 0.20 μg/ml, to ½ of FIB-1 in an amount which is 0.125 mg/ml, and the mixture was immobilized on a well wherein a hydrophobic binding-adsorptive polymer MMAC was coated. The amount of cell adhesion in the case where T2 cells were cultured under a serum-free condition for 1 day on the immobilized peptides is shown in FIG. 9, in comparison with the case where the culture was conducted on the immobilized FIB-1, which was set at 100%.
However, in a case that the ratio of FIB-1:AG73 increased to 1:0.02, because T2 cells already transited to be adherent through the immobilized AG73 peptide, free FIB-1 peptide could no longer inhibit the cell adhesion. […] Likewise, with regard to A3G72 and A4G82 peptides, because the mixing ratio at the transitional midpoint=0.1, their binding strength to T2 cells is 10 times as much as that of FIB-1.
The method used in FIGS. 8 and 9 is extremely effective as a convenient method by which a relative order can be measured concerning to the binding strength (affinity) of cell adhesion peptides and the strength of cell adhesion can be considered quantitatively.
In Table 1, the classification is shown based on the results of the affinity (bonding/adhesion strength) between FIB-1 peptide containing RGD amino acid sequence of FN molecule, a binding site to integrin, and T2 cells: laminin α-chain G-domain peptides are classified into class AA, extremely strong binding/adhesion; class A, strong adhesion; class B, adhesion as the same degree as FIB-1; and class C, binding weaker than the described above.

The test system is the same in assay [4]. The experiment in a line: Inhibition by free cell adhesion peptides of T2 cell adhesion to coated cell adhesion proteins FN, Col I, LN, VN. As to conditions: free peptide 0.25 mg/ml; serum-free, 1 day. How it is done:
Commercially available FN, LN and VN, usually used as cell adhesion proteins at cell culture, were coated to wells at the concentrations of 5 μg/ml, 10 μg/ml and 10 μg/ml, respectively. In case of Col I (collagen type I), Col I at the concentration of 100 μg/ml, dissolved in 1 mM HCl, was poured into a well, left stand still for a while, and then the solution was removed and air-drying was conducted, and rinsed with the medium, before use. Next, 6×10^5 cells/ml of alveolar type II epithelial cells (T2 cells) suspended in the serum-free DMEM medium was seeded by 100 μl each on a 96-well to which the extracellular matrix was coated, and cultured in a CO2 incubator at 37° C. for 1 day. After the culture was finished, the cells were fixed with 100 μl of methanol for 5 minutes, and stained for 30 minutes with 50 μl of 0.4% crystal violet. Excessive staining was washed with water, then the number of cells adhered to FN, Col I, LN and VN, which had been coated to the wells, was counted based on the absorbance of cytoplasm (A595).
On the other hand, among amino acid sequences of various LN molecules, the sequences that induce cell adhesion are known to be present. […] Then, the number of cells was counted in accordance with the method described above.

The test system is the same in assay [5]. The experiment in a line: Inhibition of T2 cell adhesion by free peptide different from the immobilized peptide substrate. As to conditions: for Inhibition by free peptide of T2 cell adhesion to immobilized AG73: AG73 (etc.) immobilized; for Inhibition by free peptide of T2 cell adhesion to immobilized FIB-1: FIB-1 immobilized; for Inhibition by free peptide of T2 cell adhesion to immobilized AG81.2 and AG73T: AG81.2 and AG73T immobilized. As to the method: Results obtained by adding the free peptides different from the immobilized peptides when T2 cells were cultured on the immobilized peptide prepared according to the method in Example 7, were shown in FIG. 8.
When adding the free peptides that were the same as the immobilized peptides in the culture medium, the both (free and immobilized) peptides compete for syndecan of T2 cells and as a result, the cell adhesion is inhibited (see Example 7). So far, four types of syndecans are genetically known. Whether these syndecans are commonly owned or accommodated by each peptide, overlapping only by some degrees, otherwise mutually exclusive, was examined herein.

The test system is the same in assay [6]. The assay is described as follows: Inhibition of T2 cell adhesion to immobilized pseudomatrix by treatment with polyclonal antibodies for the peptides. How it is done: Each pseudomatrix prepared in Example 13 to which cell adhesion peptide was bound (MBAC-peptide) was diluted in DMEM medium to the concentration of 1-10 μg/ml, poured into a 96-well by 100 μl each, and left still overnight in a CO2 incubator to be adsorbed and immobilized on the wells. Non-adsorbed MBAC-peptides were removed by rinsing well with DMEM medium. Next, 100 μl of antibodies diluted with serum-free DMEM to the concentration of 4-10 μg/ml was poured into a well, incubated for 2-4 hours to let the antibodies bind to the peptides. Normal IgG was used for control groups. Antibodies were removed after the treatment, T2 cells suspended at the concentration of 6×10^5 cells/ml were seeded by 100 μl each. After 1-day serum-free culture, T2 cells were fixed with 100 μl of methanol for 5 minutes, and stained with 50 μl of 0.4% crystal violet for 30 minutes. Excessive staining was washed with water, and the number of adhering cells was counted based on the absorbance of cytoplasm (A595).

Turning to GEKSQFSIRLKT, in assay [1], the “Inhibition degree of cell adhesion, Free peptide” value (shortened to “Inhibition degree … Free peptide”) is given as “No” and the “Competitive inhibition of cell adhesion by the same free cell adhesion peptide” value was “without competitive inhibition”. In addition, the “Inhibition of cell adhesion to immobilized peptide by heparin treatment” value (“Inhibition … by heparin treatment” below) in assay [2] is reported as “inhibition of adhesion”. Further, in assay [3], the “Binding strength to T2 cells, Comprehensive evaluation” value is reported as “C”.
GPLPSYLQFVGI: the “Inhibition degree of cell adhesion, Heparin” value in assay [2] (immobilized peptide treated with 100 μg/ml heparin 2 hours) was “No”. Also, the “Binding strength to T2 cells, Comprehensive evaluation” value in assay [3] is listed as “B”. In addition, the “Binding strength to T2 cells, Ratio to FIB-1” value in assay [3] (FIB-1 0.25 mg/ml) is recorded as below 1. Besides, the “Mixing ratio at the transitional midpoint” value in assay [3] (peptide:FIB-1 co-immobilized, FIB-1 0.25 mg/ml, loss of inhibition by free FIB-1) was “about 1”. For the same substance, in assay [4], the “Inhibition of adhesion of T2 cells to FN, Col I, LN and VN by free peptide” value was “inhibited adhesion of T2 cells”. In assay [5], the “Inhibition by free peptide of T2 cell adhesion to immobilized AG73” value is “inhibited the cell adhesion” and the “Inhibition by free peptide of T2 cell adhesion to immobilized FIB-1” value was “could inhibit”.
KNRLTIELEVRT: in assay [1], the “Inhibition degree … Free peptide” value is given as “No” and the “Competitive inhibition of cell adhesion by the same free cell adhesion peptide” value is “without competitive inhibition”. In addition, in assay [2], the “Inhibition … by heparin treatment” value was “inhibition of adhesion”. In addition, the “Binding strength to T2 cells, Comprehensive evaluation” value in assay [3] is listed as “C”.
Consider LQQRRSVLRTKI, for which, in assay [1], the “Inhibition degree … Free peptide” value is on record as “No” and the “Competitive inhibition of cell adhesion by the same free cell adhesion peptide” value is listed as “without competitive inhibition”. Also, the “Inhibition … by heparin treatment” value in assay [2] is on record as “inhibition of adhesion”. The “Binding strength to T2 cells, Comprehensive evaluation” value in assay [3] was “C”. In assay [5], the “Inhibition by free peptide of T2 cell adhesion to immobilized AG73” value was “cannot inhibit it”; the “Inhibition by free peptide of T2 cell adhesion to immobilized AG81.2 and AG73T” value is “could not competitively inhibit their immobilized peptide, or even if they can, only slightly”; the “Inhibition by free peptide of T2 cell adhesion to immobilized FIB-1” value is “could not inhibit”.
Regarding “MBAC-AG73T: pseudomatrix: MBAC polymer reacted with AG73T peptide (LQQRRSVLRTKI)”, the “Cell adhesion ability of immobilized pseudomatrix compared with coated FN” value in assay [6] (MBAC-peptide 1-10 μg/ml in DMEM) is “the same level of cell adhesion ability as in the case where FN was coated”. Also, the “Inhibition of cell adhesion by treatment with antibodies for the peptides” value in assay [6] (antibodies 4-10 μg/ml, 2-4 hours) is reported as “specifically inhibited”.
Take RNRLHLSMLVRP: in assay [1], the “Competitive inhibition of cell adhesion by the same free cell adhesion peptide” value is “without competitive inhibition”. Besides, the “Inhibition … by heparin treatment” value in assay [2] is recorded as “inhibition of adhesion”. In addition, in assay [3], the “Binding strength to T2 cells, Comprehensive evaluation” value is given as “C”.
For the substance TLQLQEGRLHFM, in assay [1], the “Inhibition degree … Free peptide” value is “No” and the “Competitive inhibition of cell adhesion by the same free cell adhesion peptide” value was “without competitive inhibition”. For the same substance, in assay [2], the “Inhibition … by heparin treatment” value is “inhibition of adhesion”. Also, the “Binding strength to T2 cells, Comprehensive evaluation” value in assay [3] is given as “C”.
VKTEYIKRKAFM: in assay [1], the “Inhibition degree … Free peptide” value was “No” and the “Competitive inhibition of cell adhesion by the same free cell adhesion peptide” value is recorded as “without competitive inhibition”. The “Inhibition … by heparin treatment” value in assay [2] is on record as “inhibition of adhesion”. Besides, the “Binding strength to T2 cells, Comprehensive evaluation” value in assay [3] is “C”. Moreover, the “Binding strength to T2 cells, Ratio to FIB-1” value in assay [3] (FIB-1 0.25 mg/ml) was below 1. In addition, in assay [5], the “Inhibition by free peptide of T2 cell adhesion to immobilized AG73” value was “cannot inhibit it”; the “Inhibition by free peptide of T2 cell adhesion to immobilized AG81.2 and AG73T” value is reported as “could not competitively inhibit their immobilized peptide, or even if they can, only slightly”; the “Inhibition by free peptide of T2 cell adhesion to immobilized FIB-1” value is listed as “could not inhibit”.
